The assay relates to Caco-2/THP1-Blue cell co-cultures. Briefly: Transepithelial electrical resistance (TEER) of Caco-2/THP1-Blue co-cultures, model of mild intestinal barrier disruption. In kind it is cell-based, human. To be noted: 48 h colonic fermentation samples, filtered and sterilized; TEER after 24 h. From the text: This study used an in vitro cell co-culture to create a model of mild intestinal barrier disruption. This method utilizes a co-culture model of intestinal epithelial-like cells (Caco-2 cells) and human monocytes/macrophages (THP1 cells) and is based on the work of Satsu and colleagues (PMID: 17010338) and is described by Daguet et al. (doi: 10.1016r.jff.2015.11.005). Caco-2 cells are allowed to grow into a monolayer that has physiological properties of the intestinal lining, including tight junctions. Tight junction proteins keep adjacent epithelial cells together, which forms a barrier that is virtually impermeable to macromolecules. The “tightness” of tight junctions can be measured as transepithelial electrical resistance (TEER), with a high TEER corresponding to a tighter barrier. THP1 monocytes were originally isolated from a human patient with acute leukemia. When stimulated with phorbol 12-myristate 13-acetate (PMA), these cells develop into macrophage-like cells that are able to adhere and are primed for toll-like receptor (TLR) signaling. […] TEER was measured after pre-treatment of the cell co-cultures, representing a baseline (0 hour) value. […] Changes in TEER values were measured after 24 hours.
TEER was measured 24 h after pre-treatment of the co-cultures and each 24 h value was normalized to its corresponding Oh value and is shown as percentage of initial value. […]

From US20240252557A1, “MULTIBIOTIC SUPPLEMENTS” (Natals, Inc., priority 2023, published 2024) come the findings set out here.

In the case of `CCCC(=O)OCC(COC(=O)CCC)OC(=O)CCC` [tributyrin], the “barrier integrity (TEER) compared to the blank control” value is “improved barrier integrity”.
